The results in this text go back to patent US10071974B2, “Morpholine and 1,4-oxazepane amides as somatostatin receptor subtype 4 (SSTR4) agonists” (Boehringer Ingelheim International GmbH, priority 2014, dated 2018).

Read-outs that look alike come from different tables or passages of the source.

The target of one series is human SSTR5 (Homo sapiens (Human), UniProt P35346). In words: Radioligand binding assay, CHO cell membranes expressing recombinant human SSTR5. The text has this:
(§1) Radioligand Binding Assays
(§2) Method description for binding assays with human Somatostatin receptors by use of CHO cell membranes expressing recombinant human SSTR1 or human SSTR2 or human SSTR3 or human SSTR4 or human SSTR5
(§3) Receptor binding assays refer to a technique in which labeled receptor ligands are used to detect binding to a receptor. In competition experiments test compounds, which are not labeled, compete with the binding side of a labeled ligand. The displacement of the labeled ligand by the test compound leads to a decreased signal.
(§4) For the binding experiments 200 μL of membrane homogenate from one of the following protein amounts is used: hSSTR1 (40 μg/well); hSSTR2 (25 μg/well); hSSTR3 (1.5 μg/well); hSSTR4 (0.5 μg/well); hSSTR5 (25 μg/well). The homogenate is incubated with 0.05 nM of radioligand ([3-125I-Tyr]-Somatostatin-(1-14)) in addition to increasing concentrations of a test compound or vehicle (100% binding) in a total volume of 250 μL using a Hepes buffer (10 mM, EDTA 1 mM, MgCl2 5 mM, pH7.6, BSA 0.5%, Bacitracin 0.003%, DMSO 1%) for 180 min at room temperature. The incubation is terminated by filtration with ice cold NaCl 0.9% through polyethyleneimine treated (0.3%) GF/B glass fiber filters using a cell harvester. The protein-bound radioactivity is measured in a suitable reader. The non-specific binding is defined as radioactivity bound in the presence of 1 μM Somatostatin-14 during the incubation period.
(§5) The analysis of the concentration-binding curves is performed by computer-assisted nonlinear least square curve fitting method using the model of one receptor binding site.
(§6) Selectivity data was obtained with the aid of the above described radioligand binding assays.

The next series concerns the target human SSTR3 (Homo sapiens (Human), UniProt P32745). In words: Radioligand binding assay, CHO cell membranes expressing recombinant human SSTR3.
From the text: as §1, §2, §3, §4, §5, §6

The target in another series is human SSTR2 (Homo sapiens (Human), UniProt P30874). In words: Radioligand binding assay, CHO cell membranes expressing recombinant human SSTR2.
From the text: as §1, §2, §3, §4, §5, §6

A short description of another series: in vitro. To be noted: human, microsomes, pH 7.6.
In the next series the target is human SSTR1 (Homo sapiens (Human), UniProt P30872). In words: Radioligand binding assay, CHO cell membranes expressing recombinant human SSTR1.
From the text: as §1, §2, §3, §4, §5, §6

In series [1] the target is human Somatostatin 4 Receptor (SSTR4) (Homo sapiens (Human), UniProt P31391). Description: cAMP assay with human somatostatin 4 receptor (hSSTR4 expressing H4 cells). Conditions: read-out: SSTR4 agonism EC50. The class given is cell-based. Background: cAMP levels reflect the balance of adenylyl cyclase and phosphodiesterase activity.
Another series addresses human SSTR4 (Homo sapiens (Human), UniProt P31391). In words: Radioligand binding assay, CHO cell membranes expressing recombinant human SSTR4.
From the text: as §1, §2, §3, §4, §5, §6

The nature of series [2]: Metabolic stability in pooled human liver microsomes. Conditions: 1 μM test compound, 37° C. Background: Liver microsomes are a subcellular fraction often used to study metabolism.
For series [3] the following is noted: human, microsomes.

Chain of human SSTR5 (P35346 whole entry): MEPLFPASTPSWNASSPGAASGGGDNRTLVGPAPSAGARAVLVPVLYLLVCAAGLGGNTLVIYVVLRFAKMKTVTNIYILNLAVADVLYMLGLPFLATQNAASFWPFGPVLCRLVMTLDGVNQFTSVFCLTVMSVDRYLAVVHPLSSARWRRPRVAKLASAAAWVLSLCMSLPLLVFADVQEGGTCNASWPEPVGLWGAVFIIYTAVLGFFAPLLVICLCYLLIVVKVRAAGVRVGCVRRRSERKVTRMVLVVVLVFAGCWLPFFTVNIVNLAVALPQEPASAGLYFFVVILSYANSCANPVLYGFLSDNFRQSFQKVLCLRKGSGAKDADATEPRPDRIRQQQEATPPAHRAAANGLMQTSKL
Chain of human SSTR2 (P30874 whole entry): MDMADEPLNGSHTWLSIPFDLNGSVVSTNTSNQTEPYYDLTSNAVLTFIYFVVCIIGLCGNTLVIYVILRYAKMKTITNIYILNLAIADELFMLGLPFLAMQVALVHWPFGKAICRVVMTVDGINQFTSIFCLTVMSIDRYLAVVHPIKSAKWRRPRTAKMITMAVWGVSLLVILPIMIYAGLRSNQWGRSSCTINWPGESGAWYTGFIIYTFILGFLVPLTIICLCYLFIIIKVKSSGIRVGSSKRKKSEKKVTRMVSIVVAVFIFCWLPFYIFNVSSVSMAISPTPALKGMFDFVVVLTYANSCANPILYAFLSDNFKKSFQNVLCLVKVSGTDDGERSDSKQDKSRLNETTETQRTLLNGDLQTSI
Chain of human SSTR3 (P32745 whole entry): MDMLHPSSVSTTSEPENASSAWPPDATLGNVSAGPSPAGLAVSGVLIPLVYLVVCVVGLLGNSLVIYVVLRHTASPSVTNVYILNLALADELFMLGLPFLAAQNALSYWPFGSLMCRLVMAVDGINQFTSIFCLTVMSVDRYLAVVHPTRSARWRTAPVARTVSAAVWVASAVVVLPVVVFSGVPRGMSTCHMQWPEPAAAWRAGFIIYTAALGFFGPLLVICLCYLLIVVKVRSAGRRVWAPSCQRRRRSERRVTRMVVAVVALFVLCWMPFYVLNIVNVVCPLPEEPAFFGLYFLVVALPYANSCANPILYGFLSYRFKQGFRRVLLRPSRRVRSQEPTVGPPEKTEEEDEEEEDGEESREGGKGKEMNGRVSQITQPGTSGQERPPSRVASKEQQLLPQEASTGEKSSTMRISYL
Chain of human SSTR1 (P30872 whole entry): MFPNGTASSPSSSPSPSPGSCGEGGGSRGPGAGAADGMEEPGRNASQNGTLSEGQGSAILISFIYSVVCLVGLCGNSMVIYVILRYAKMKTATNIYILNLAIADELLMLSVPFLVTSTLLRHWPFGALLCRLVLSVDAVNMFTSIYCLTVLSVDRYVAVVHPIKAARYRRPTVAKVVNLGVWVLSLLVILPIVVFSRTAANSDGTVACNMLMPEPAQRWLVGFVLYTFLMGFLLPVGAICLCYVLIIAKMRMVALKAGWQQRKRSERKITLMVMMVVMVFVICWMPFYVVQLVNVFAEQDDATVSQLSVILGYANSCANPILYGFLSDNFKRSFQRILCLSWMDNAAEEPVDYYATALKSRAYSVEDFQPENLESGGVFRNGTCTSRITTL
Chain of human Somatostatin 4 Receptor (SSTR4) (P31391 whole entry): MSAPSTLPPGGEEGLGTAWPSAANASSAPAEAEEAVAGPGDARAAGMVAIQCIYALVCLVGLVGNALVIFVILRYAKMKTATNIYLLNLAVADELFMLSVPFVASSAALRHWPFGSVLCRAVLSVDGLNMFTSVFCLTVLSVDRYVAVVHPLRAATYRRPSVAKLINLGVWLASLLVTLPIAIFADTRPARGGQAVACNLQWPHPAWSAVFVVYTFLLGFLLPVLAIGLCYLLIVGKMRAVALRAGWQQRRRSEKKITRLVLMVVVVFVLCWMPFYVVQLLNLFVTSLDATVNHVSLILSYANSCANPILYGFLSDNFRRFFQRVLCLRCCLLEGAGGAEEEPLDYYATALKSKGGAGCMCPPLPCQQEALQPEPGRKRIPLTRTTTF
Chain of human SSTR4 (P31391 whole entry): as above

Turning to `Cn1nc(C(C)(C)NC(=O)C2CNCCCO2)c2ccccc21` (single isomer, unassigned) [Example 24], the Ki at human SSTR5 stood at 9.75 µM; at human SSTR3, 8.62 µM; on human SSTR2, 9.6 µM; at human SSTR1, 9.45 µM; at human SSTR4, 0.523 µM. Besides, in “in vitro”, the half-life at 1 μM is over 2.17 h. For the same compound, the EC50 in series [1] amounted to 0.0362 µM.

Consider `Cn1nc(C(C)(C)NC(=O)[C@@H]2CNCCO2)c2cccc(Cl)c21` [Example 79], for which, in [2], the “Half-life t1/2” value worked out at 1.67 h.

Take `Cc1cccn2c(C(C)(C)NC(=O)[C@@H]3CNCCO3)ncc12` [Example 95]: the Ki on human SSTR5 came to 9.77 µM; at human SSTR3 it was 8.69 µM; on human SSTR2, 9.63 µM; at human SSTR1 it was 9.48 µM; on human SSTR4, 0.218 µM. The half-life at 1 μM in “in vitro” was over 2.17 h. In series [1], the EC50 was 0.0045 µM.

For `Cn1nc(C(C)(C)NC(=O)[C@@H]2CNCCO2)c2ccccc21` [Example 19], the Ki on human SSTR5 was found to be 9.86 µM; on human SSTR3, 8.71 µM; at human SSTR2, 9.63 µM; on human SSTR1 it was 9.01 µM; on human SSTR4, 0.194 µM. For the same compound, the half-life at 1 μM in “in vitro” is over 2.17 h. For the same compound, the EC50 in [1] came out at 0.0133 µM.

Consider `Cc1cccc2c(C(C)(C)NC(=O)[C@@H]3CNCCO3)nn(C)c12` [Example 83], for which the “Half-life t1/2” value in series [2] is over 2.17 h. Moreover, the EC50 in series [1] came out at 0.0041 µM.

Consider `Cn1nc(C(C)(C)NC(=O)C2CNCCOC2)c2ccccc21` (single isomer, unassigned) [Example 21], for which the inhibitory constant (Ki) came to 9.75 µM on human SSTR5; 8.62 µM on human SSTR3; 9.6 µM on human SSTR2; 9.45 µM on human SSTR1; 0.0892 µM at human SSTR4. Besides, in the series “in vitro”, the half-life at 1 μM is over 2.17 h. Besides, in [1], the EC50 is 0.0032 µM.

For `CC(C)(NC(=O)C1CNCCOC1)c1noc2c(Cl)cccc12` (single isomer, unassigned) [Example 73], the “Half-life t1/2” value in [3] was over 2.17 h.

In general, Ki refers to a dissociation constant, usually derived from enzyme kinetics or from competition with a known ligand. One may read the half-life as the time needed for the level to fall by half in the phase considered. Low readings indicate fast loss, high ones slow loss. As usually defined, the EC50 is the concentration that produces a half-maximal response.
